Assay results from patent publication US7470669B2, “Isolated polypeptide comprising a leptin fragment” (Serono Genetics Institute, S.A., priority 1999, dated 2008).

Columns and labels:
LSR = assay: Ligand blot of 125I-leptin on LSR complexes immunoprecipitated from PLC cells; assay type: binding, human; settings: PLC cell lysates; complexes of 200 and 230 kDa
Experimental: FIGS. 4A, 4B, 4C, and 4D show LSR binding and degradation of ^125I-leptin in human hepatocytes, and the effect of 81B anti-LSR antibody. For FIG. 4A, PLC cells were lysed (3-T175 cm^2 flasks per condition) and immunoprecipitated with irrelevant or 81B anti-serum. The immunoprecipitates were washed, were separated on 10% SDS-polyacrylamide gels under nondenaturing conditions, and were transferred to nitrocellulose. Ligand blots using ^125I-leptin were then performed as described in FIG. 2. For FIG. 4B, confluent monolayers of PLC cells were incubated at 37° C. for 30 min with 100 nM insulin, were washed, and then were incubated for 30 min at room temperature in the presence of anti-LSR peptide 81B antibody (▪), or irrelevant (□) IgG. After this, the cells were incubated at 37° C. for 2 h with increasing concentrations of ^125I-leptin in Buffer A. The monolayers were washed, and the amount of ^125I-leptin degraded was determined as described herein. Results are shown as the mean of duplicate (irrelevant IgG) or triplicate (anti-LSR peptide IgG) determinations. FIG. 4C is a schematic diagram of the motifs found from the predicted protein sequence of LSR α cDNA. […] After washing and incubation with goat-anti-rabbit FITC-conjugated antibody, the cells were fixed and analyzed by flow cytometry using a FACSCalibur (Becton Dickinson). […]

db/db mice = assay: Postprandial plasma TG response after high-fat test meal in db/db mice; assay type: in vivo, mouse
Experimental: FIGS. 1A and 1B show the effect of leptin on postprandial plasma TG response in db/db and db^Pas/db^Pas mice. Overnight-fasted db/db (A), db^Pas/db^Pas (B) mice were gavage-fed a high-fat test meal and immediately injected intravenously (db/db) or intraperitoneally (db^Pas/db^Pas) with saline (open symbols) or 50 μg mouse recombinant leptin (closed symbols). At the indicated times, blood was collected from the tail (A) or orbital (B) vein, plasma was separated by centrifugation, and plasma TG concentrations were determined using an enzymatic kit. Each point represents the mean±SEM (db/db: saline, n=4, leptin, n=3; db^Pas/db^Pas: saline, n=6, leptin, n=7). The average plasma lipid response in 10 control C57BL6 mice is shown as a dotted line in both A and B. In a separate experiment, shown as an inset for each strain of mice, overnight fasted db/db (●) or db^Pas/db^Pas (▪) mice were gavage-fed the test meal and immediately injected intravenously with increasing concentrations of leptin. The plasma lipid response was then measured as in A and B. The area under the response curve (AUC) was then calculated using a triangulation method on Microsoft Excel between 0 and 4 hr (mg TG·h/mL). Values are presented as % of control value (test meal alone obtained in A or B). Each point represents the mean of at least 3 mice.
Mice that were fasted for 2-3 hours were gavage-fed 300 μL of a test meal consisting of 60% fat (37% saturated, 27% mono-, and 36% polyunsaturated fatty acids), 20% protein and 20% carbohydrate, and providing 56 kcal of energy/kg (1.5 g butter, 1.5 g sunflower oil, 2.5 g nonfat dry milk, 2.5 g sucrose and 3 ml water). Immediately after the meal, the animals were injected intravenously (db/db) or intraperitoneally (db^Pas/db^Pas) with either 200 μL physiological saline or 200 μL of the same solution containing recombinant mouse leptin. […] TG concentrations were determined using a commercially available enzymatic kit with controls included in each assay (Precinorm L, Roche-Boehringer Mannheim; Lyotrol N, BioMérieux). […]

## leptin: plasma protein of 16 kDa produced by adipocytes; recombinant human or mouse leptin, species depends on the experiment
LSR
  binding of 125I-leptin to multimeric complexes precipitated by the 81B antibody: binds directly
db/db mice; 250 ng leptin per animal, AUC 0-4 h
  area under the TG curve: significant reduction
db/db mice; 500 ng leptin per animal (maximum effect)
  decrease of the area under the postprandial TG curve: > 80%
db/db mice; single bolus 50 μg mouse recombinant leptin i.v. at time of test meal
  amplitude of the triglyceride response: decreased the amplitude of the triglyceride response
